Patent US10512696B2, “Nanoscale platinum compounds and methods of use thereof” (priority 2009, dated 2019)

Columns and labels:
[1] = system: Lewis Lung Carcinoma cell lines (LLC); assay: MTS cell viability assay, LLC cells; format: cell-based, murine; conditions: for EC50: cisplatin-equivalent concentration; for IC50: 48 hours post-incubation, read-out: IC50 (LLC cell kill)
Text: The absorbance reflects the number of surviving cells.

4T1 breast cancer cells = assay: Liponanoparticle cell viability MTS assay, 4T1; format: cell-based; conditions: three time points
Procedure: In a 96 well plate, 2×10^3 cells were plated. After 4 h, cells were treated with different concentrations of free drug or lipo-nanoparticles. Cells without any treatment were kept as control. […]

[2] = system: cisplatin-resistant cancer cell line (CP20); assay: Liponanoparticle cell viability MTS assay, CP20; format: cell-based
Procedure: (§1) In a 96 well plate, 2×10^3 cells were plated. After 4 h, cells were treated with different concentrations of free drug or lipo-nanoparticles. Cells without any treatment were kept as control. After 48 h, cell viability was assessed using standard MTS assay according to manufacturer's instructions.

[3] = system: Lewis lung cancer cell line (LLC); assay: Liponanoparticle cell viability MTS assay, LLC; format: cell-based
Procedure: as §1

4T1 breast cancer = conditions: mouse, in vivo
Procedure: (§2) The LLC Lung Cancer cells and 4T1 Breast Cancer cells ([…]) were implanted subcutaneously in the flanks of 4-week-old C57/BL6 and BALB/c mice (weighing 20 g, Charles River Laboratories, MA) respectively. The drug therapy was started after the tumors attained volume of 50 mm^3. […] PBS (100 μL) administered by tail-vein injection was used as a control for drug treatment. The tumor volumes and body weights were monitored on a daily basis. The animals were sacrificed when the average tumor size of the control exceeded 2000 mm^3 in the control group. The tumors were harvested immediately following sacrifice and stored in 10% formalin for further analysis. All animal procedures were approved by Harvard institutional IUCAC.
(§3) The tissues were fixed in 10% formalin, paraffin embedded, sectioned and stained with H&E at the Harvard Medical School Core Facility. Tumor and Kidney paraffin sections were deparaffinized and stained with standard TMR-red fluorescent terminal deoxynucleotidyl transferase-mediated dUTP nick end labeling (TUNEL) kit following the manufacturer's protocol (In Situ Cell Death Detection Kit, TMR Red, Roche). Images were obtained using a Nikon Eclipse TE2000 fluorescence microscope equipped with red filter.
(§4) Body weights were recorded daily to assess toxicity. In addition, livers and spleens were removed at the end of treatment to record weights and perform extensive pathological examination to assess toxicity of vital organs. Cell apoptosis in vital organs was measured using TUNNEL assay. Statistical analysis of the toxicity data was performed using a two-way ANOVA test with the Prism 5™ software.

Lewis lung carcinoma = system: Lewis lung carcinoma
Procedure: as §2, §3, §4

[4] = system: K-ras LSL/+ /Pten fl/fl ovarian adenocarcinomas; assay: In vivo murine ovarian cancer tumor model (bioluminescence); parameters: species or system mice
Procedure: Ovarian adenocarcinomas were induced in genetically-engineered K-ras^LSL/+/Pten^fl/fl mice via intrabursal delivery of adenovirus carrying Cre recombinase, as described previously. Tumor cells were engineered to express luciferase once activated by Adeno-Cre, in order to make tumor imaging feasible before and after drug treatment.
Statistical analysis of the toxicity data was analyzed using a one-way ANOVA test with the Prism 5™ software.

SMILES: N.N.O=C([O-])C1(C(=O)[O-])CCC1.[Pt+2] [Carboplatin, cis-Diammine-(1,1-cyclobutanedicarboxylato) platinum(II)]
- EC50 ([1]; LLC cells, 48 h): 14.8 ± 0.38 µM
- IC50 ([1]; LLC cells): 14.8 ± 0.38 µM
- effect on viability of 4T1 breast cancer cells (4T1 breast cancer cells): least effective of all platinates tested
- effect on viability of CP20 cells [2]: no effect at this concentration range
- effect on viability of LLC cells [3]: no effect at this concentration range

SMILES: N.N.[Cl][Pt][Cl] [Cisplatin, cis-dichlorodiammineplatinum(II)]
- effect on LLC cell viability ([1]; 48 h): identical cell kill
- concentration for complete cell kill ([1]; LLC cells): greater than 20 uM
- EC50 ([1]; LLC cells, 48 h): 3.87 ± 0.37 µM
- IC50 ([1]; LLC cells): 3.87 ± 0.37 µM
- apoptosis in the kidney (4T1 breast cancer): significant apoptosis in the kidney
- tumor growth inhibition (Lewis lung carcinoma; dose equivalent to 1.25 mg/kg of cisplatin, three doses i.v.): only a minor tumor growth inhibition
- apoptosis in kidney (TUNEL) (Lewis lung carcinoma; mouse, in vivo): significant apoptosis
- apoptosis in tumor (TUNEL) (Lewis lung carcinoma; mouse, in vivo): significant induction of apoptosis
- kidney H&E pathology (Lewis lung carcinoma; mouse, in vivo): significant tubular necrosis
- tumor inhibition, dose dependence (Lewis lung carcinoma; three doses i.v., 1.25 and 3 mg/kg): dose-dependent tumor inhibition
- apoptosis in the kidney (TUNEL) ([4]; 3 mg/kg or equivalent Pt concentration): significant apoptosis in the kidney
- body weight ([4]; daily recording): significant loss of body weight
- effect on viability of CP20 cells [2]: only at the highest concentration
